Assay results: US7009052B2, “Sulfonamide derivatives” (Warner Lambert Company LLC, priority 2003, dated 2006)

molecular target: T1, androgen receptor (Homo sapiens, UniProt P10275); assay: AR Antagonist Cell Assay (MMTV-luciferase reporter, DHT-induced); assay type: cell-based; settings: MDA-MB453-MMTV clone 54-19 cells, 100 pM DHT, 17 hr
T1 sequence (P10275 1-920 Q868H): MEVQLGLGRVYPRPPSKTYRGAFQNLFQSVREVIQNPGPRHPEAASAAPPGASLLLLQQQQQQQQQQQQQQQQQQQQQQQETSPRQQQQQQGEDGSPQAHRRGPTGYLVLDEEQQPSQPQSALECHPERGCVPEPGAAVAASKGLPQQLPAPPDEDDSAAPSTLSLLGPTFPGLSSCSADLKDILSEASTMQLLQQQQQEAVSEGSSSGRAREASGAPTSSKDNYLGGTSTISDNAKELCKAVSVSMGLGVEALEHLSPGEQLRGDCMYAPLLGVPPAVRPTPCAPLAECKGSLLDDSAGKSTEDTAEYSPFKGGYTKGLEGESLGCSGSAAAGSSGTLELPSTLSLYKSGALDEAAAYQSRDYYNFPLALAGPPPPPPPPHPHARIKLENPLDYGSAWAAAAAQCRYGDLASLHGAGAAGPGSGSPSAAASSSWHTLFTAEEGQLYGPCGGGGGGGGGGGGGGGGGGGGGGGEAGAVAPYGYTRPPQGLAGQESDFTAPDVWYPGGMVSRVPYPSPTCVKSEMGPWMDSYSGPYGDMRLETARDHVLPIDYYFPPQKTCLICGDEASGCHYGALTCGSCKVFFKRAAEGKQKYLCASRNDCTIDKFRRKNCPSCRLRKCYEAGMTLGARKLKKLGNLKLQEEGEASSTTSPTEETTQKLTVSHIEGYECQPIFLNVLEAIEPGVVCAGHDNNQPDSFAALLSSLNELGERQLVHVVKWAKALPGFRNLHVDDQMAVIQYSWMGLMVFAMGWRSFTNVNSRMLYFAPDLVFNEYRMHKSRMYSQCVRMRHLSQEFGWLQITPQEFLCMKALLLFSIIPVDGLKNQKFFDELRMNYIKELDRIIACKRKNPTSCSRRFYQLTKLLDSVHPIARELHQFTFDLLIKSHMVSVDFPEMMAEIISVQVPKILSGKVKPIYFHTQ
Experimental: The compounds ability to antagonize the effects of androgen on the androgen receptor were determined in the protocol described immediately below.
Experimental Procedure for AR Antagonist Cell Assay
Cell line: MDA-MB453-MMTV clone 54-19. This cell line is a stable transfected cell line with MDA-MB453 cell background (human breast tumor cell expressing high level of androgen receptor). A MMTV minimal promoter containing ARE was first cloned in front of a firefly luciferase reporter gene. Then the cascade was cloned into transfection vector pUV120puro. Electroporation method was used for transfecting MDA-MB-453 cell. Puromycin resistant stable cell line was selected.
Cell Culture Media and Reagents:
Culture medium: DMEM (high glucose, Gibco cat #: 11960-044), 10% FBS, and 1% L-glutamine
Plating medium: DMEM (phenol red free), 10% charcoal treated HyClone serum, 1% L-glutamine
Assay medium: DMEM (phenol red free), 1% charcoal treated HyClone serum, 1% L-glutamine, and 1% penicillin/streptomycin
3× luciferase buffer: 2% beta-mercaptoethanol, 0.6% ATP, 0.0135% luciferine in cell lysis buffer
• 1. Cells are maintained in culture medium, splitting cells when they reach 80–90% confluence • 2. To test compounds, 10,000 cells/well are plated to opaque 96 cell culture plate in 100 ul/well plating medium, culture for overnight at 37° C. in cell culture incubator • 3. Carefully remove plating medium, then add 80 ul/well of pre-warmed assay medium, add 10 ul/well testing compound (final concentration at 10 uM or 1 uM), incubate at 37° C. for 30 minutes • 4. Add 10 ul/well freshly prepared DHT (final concentration at 100 pM) to each well, incubate at 37° C. for 17 hr (overnight) • 5. Add 50 ul/well 3× luciferase buffer, incubate at room temperature for 5 minutes, then count on Luminometer The fold induction over background by 100 pM DHT in the absence of testing compounds is standardized as 100% and experimental result is expressed as percentage of inhibition by testing compounds. TABLE3

IC50 [µM]	SMILES
> 10	Cc1ccc(F)c(CNS(=O)(=O)c2ccc3[nH]c(=O)cc(C(F)(F)F)c3c2)c1Cl [Example 152, 2-Oxo-4-trifluoromethyl-1,2-dihydroquinoline-6-sulfonic acid2-chloro-6-fluoro-3-methylbenzylamide]
6.61	O=c1cc(C(F)(F)F)c2cc(S(=O)(=O)NCc3cc(C(F)(F)F)ccc3F)ccc2[nH]1 [Example 158, 2-Oxo-4-trifluoromethyl-1,2-dihydroquinoline-6-sulfonic acid2-fluoro-5-trifluoromethylbenzylamide]
1.04	CN(CCC#N)S(=O)(=O)c1ccc2[nH]c(=O)cc(C(F)(F)F)c2c1 [Example 77, 2-Oxo-4-trifluoromethyl-1,2-dihydroquinoline-6-sulfonic acid(2-cyanoethyl)methylamide]
> 10	Cn1nc(C(C)(C)C)cc1NS(=O)(=O)c1ccc2[nH]c(=O)cc(C(F)(F)F)c2c1 [Example 104, 2-Oxo-4-trifluoromethyl-1,2-dihydroquinoline-6-sulfonic acid(5-tert-butyl-2-methyl-2H-pyrazol-3-yl)amide]
> 10	Cc1cccc(C)c1NS(=O)(=O)c1ccc2c(c1)c(C(F)(F)F)cc(=O)n2C [Example 18, 1-Methyl-2-oxo-4-trifluoromethyl-1,2-dihydroquinoline-6-sulfonicacid (2,6-dimethylphenyl)amide]
3.92	Cn1c(=O)cc(C(F)(F)F)c2cc(S(=O)(=O)NCc3ccccc3C(F)(F)F)ccc21 [Example 62, 1-Methyl-2-oxo-4-trifluoromethyl-1,2-dihydroquinoline-6-sulfonicacid 2-trifluoromethyl-benzylamide]
0.58	CCOc1ccccc1CNS(=O)(=O)c1ccc2[nH]c(=O)cc(C(F)(F)F)c2c1 [Example 136, 2-Oxo-4-trifluoromethyl-1,2-dihydroquinoline-6-sulfonic acid2-ethoxybenzylamide]
> 10	Cn1c(=O)cc(C(F)(F)F)c2cc(S(=O)(=O)NCCSCc3c(F)cccc3Cl)ccc21 [Example 63, 1-Methyl-2-oxo-4-trifluoromethyl-1,2-dihydroquinoline-6-sulfonicacid [2-(2-chloro-6-fluorobenzylsulfanyl)ethyl]-amide]
1.17	C#Cc1ccc(NS(=O)(=O)c2ccc3c(c2)c(C(F)(F)F)cc(=O)n3C)cc1 [Example 15, 1-Methyl-2-oxo-4-trifluoromethyl-1,2-dihydroquinoline-6-sulfonicacid (4-ethynylphenyl)amide]
2.39	O=c1cc(C(F)(F)F)c2cc(S(=O)(=O)NCc3c(F)cccc3Cl)ccc2[nH]1 [Example 142, 2-Oxo-4-trifluoromethyl-1,2-dihydroquinoline-6-sulfonic acid2-chloro-6-fluorobenzylamide]
0.21	O=c1cc(C(F)(F)F)c2cc(S(=O)(=O)Nc3cccc(C(F)(F)F)c3)ccc2[nH]1 [Example 109, 2-Oxo-4-trifluoromethyl-1,2-dihydroquinoline-6-sulfonic acid(3-trifluoromethylphenyl)amide]
5.65	O=c1cc(C(F)(F)F)c2cc(S(=O)(=O)NCc3ccc(F)cc3Cl)ccc2[nH]1 [Example 140, 2-Oxo-4-trifluoromethyl-1,2-dihydroquinoline-6-sulfonic acid2-chloro-4-fluorobenzylamide]
0.17	COc1ccccc1CCNS(=O)(=O)c1ccc2[nH]c(=O)cc(C(F)(F)F)c2c1 [Example 135, 2-Oxo-4-trifluoromethyl-1,2-dihydroquinoline-6-sulfonic acid[2-(2-methoxyphenyl)ethyl]amide]
0.45	CC(C)Oc1cccc(NS(=O)(=O)c2ccc3[nH]c(=O)cc(C(F)(F)F)c3c2)c1 [Example 105, 2-Oxo-4-trifluoromethyl-1,2-dihydroquinoline-6-sulfonic acid(3-isopropoxyphenyl)amide]
0.34	COc1cccc(NS(=O)(=O)c2ccc3[nH]c(=O)cc(C(F)(F)F)c3c2)c1 [Example 116, 2-Oxo-4-trifluoromethyl-1,2-dihydroquinoline-6-sulfonic acid(3-methoxyphenyl)amide]

Second part, the molecule before the results:

SMILES	IC50 [µM]
COc1cccc(NS(=O)(=O)c2ccc3c(c2)c(C(F)(F)F)cc(=O)n3C)c1 [Example 48, 1-Methyl-2-oxo-4-trifluoromethyl-1,2-dihydroquinoline-6-sulfonicacid (3-methoxyphenyl)amide]	1.13
Cn1c(=O)cc(C(F)(F)F)c2cc(S(=O)(=O)Nc3ccc4c(c3)OCO4)ccc21 [Example 26, 1-Methyl-2-oxo-4-trifluoromethyl-1,2-dihydroquinoline-6-sulfonicacid benzo[1,3]dioxol-5-ylamide]	4.04
CCCCN(CC)S(=O)(=O)c1ccc2c(c1)c(C(F)(F)F)cc(=O)n2C [Example 4, 1-Methyl-2-oxo-4-trifluoromethyl-1,2-dihydroquinoline-6-sulfonicacid butylethylamide]	10.6
COc1ccccc1CCNS(=O)(=O)c1ccc2c(c1)c(C(F)(F)F)cc(=O)n2C [Example 58, 1-Methyl-2-oxo-4-trifluoromethyl-1,2-dihydroquinoline-6-sulfonicacid [2-(2-methoxyphenyl)ethyl]amide]	5.4
Cn1c(=O)cc(C(F)(F)F)c2cc(S(=O)(=O)Nc3ccccc3CO)ccc21 [Example 19, 1-Methyl-2-oxo-4-trifluoromethyl-1,2-dihydroquinoline-6-sulfonicacid(2-hydroxymethylphenyl)amide]	> 10
Cn1c(=O)cc(C(F)(F)F)c2cc(S(=O)(=O)N(CCO)Cc3ccccc3)ccc21 [Example 6, 1-Methyl-2-oxo-4-trifluoromethyl-1,2-dihydroquinoline-6-sulfonicacid benzyl(2-hydroxyethyl)-amide]	> 10
CCCCN(C)S(=O)(=O)c1ccc2c(c1)c(C(F)(F)F)cc(=O)n2C [Example 8, 1-Methyl-2-oxo-4-trifluoromethyl-1,2-dihydroquinoline-6-sulfonicacid butyimethylamide]	> 10
Cn1c(=O)cc(C(F)(F)F)c2cc(S(=O)(=O)NCCC(C)(C)C)ccc21 [Example 49, 1-Methyl-2-oxo-4-trifluoromethyl-1,2-dihydroquinoline-6-sulfonicacid (3,3-dimethylbutyl)amide]	> 10
CCOc1ccc(NS(=O)(=O)c2ccc3c(c2)c(C(F)(F)F)cc(=O)n3C)cc1 [Example 44, 1-Methyl-2-oxo-4-trifluoromethyl-1,2-dihydroquinoline-6-sulfonicacid (4-ethoxyphenyl)amide]	3.76
Cn1c(=O)cc(C(F)(F)F)c2cc(S(=O)(=O)Nc3cc(C(C)(C)C)cc(C(C)(C)C)c3)ccc21 [Example 45, 1-Methyl-2-oxo-4-trifluoromethyl-1,2-dihydroquinoline-6-sulfonicacid (3,5-di-tert-butylphenyl)amide]	> 10
Cc1ccc(-c2ccccc2)cc1NS(=O)(=O)c1ccc2c(c1)c(C(F)(F)F)cc(=O)n2C [Example 27, 1-Methyl-2-oxo-4-trifluoromethyl-1,2-dihydroquinoline-6-sulfonicacid (4-methylbipheny-3-yl)amide]	0.84
Cn1c(=O)cc(C(F)(F)F)c2cc(S(=O)(=O)Nc3cc4ccccc4cn3)ccc21 [Example 32, 1-Methyl-2-oxo-4-trifluoromethyl-1,2-dihydroquinoline-6-sulfonicacid isoquinolin-3-ylamide]	> 10
CCCCN(CCO)S(=O)(=O)c1ccc2c(c1)c(C(F)(F)F)cc(=O)n2C [Example 5, 1-Methyl-2-oxo-4-trifluoromethyl-1,2-dihydroquinoline-6-sulfonicacid butyl(2-hydroxyethyl)-amide]	> 10
